# Test results as given in patent US10000582B2, “Ethylsulfonated hyaluronic acid biopolymers and methods of use thereof” (The Regents of the University of California, priority 2013, dated 2018).
# Tested on: platelets (platelet rich plasma)
# Experiment: Platelet adhesion assay (SEM imaging)
# Assay type: cell-based
# From the text: Platelet adhesion experiments were visualized by scanning electron microscope (SEM) imaging (FIG. 7).
substance,measurement,value
heparin,platelet aggregation on the material,no aggregation of platelets
